Measurements reported in the NIST ThermoML archive (doi:10.1021/je0601208).

How the values were obtained:
[1] = xn = mol fraction of the nth substance listed
[2] = refractive index (Na D-line) (dimensionless); xn = mol fraction of the nth substance listed; conditions: 100.5 kPa, Liquid, Standard Abbe refractometry

CCOC(=O)c1ccccc1 [ethyl benzoate] + CCO
Conditions	refractive index, 288.15 K	refractive index, 298.15 K	refractive index, 308.15 K	refractive index, 318.15 K	surface tension liquid-gas, 288.15 K [mN/m]	surface tension liquid-gas, 298.15 K [mN/m]	surface tension liquid-gas, 308.15 K [mN/m]	surface tension liquid-gas, 318.15 K [mN/m]
[1], x1 = 0.05	–	–	–	–	23.9	23.1	22.2	21.3
[1], x1 = 0.1	–	–	–	–	24.7	23.9	23	22.1
[1], x1 = 0.15	–	–	–	–	25.5	24.6	23.7	22.8
[1], x1 = 0.2	–	–	–	–	26.2	25.3	24.4	23.5
[1], x1 = 0.25	–	–	–	–	26.9	26	25	24.1
[1], x1 = 0.3	–	–	–	–	27.5	26.6	25.6	24.7
[1], x1 = 0.35	–	–	–	–	28.1	27.2	26.1	25.3
[1], x1 = 0.4	–	–	–	–	28.7	27.7	26.7	25.8
[1], x1 = 0.45	–	–	–	–	29.2	28.3	27.2	26.3
[1], x1 = 0.5	–	–	–	–	29.7	28.7	27.7	26.8
[1], x1 = 0.55	–	–	–	–	30.2	29.2	28.1	27.3
[1], x1 = 0.6	–	–	–	–	30.7	29.7	28.6	27.8
[1], x1 = 0.65	–	–	–	–	31.2	30.2	29.1	28.3
[1], x1 = 0.7	–	–	–	–	31.8	30.8	29.6	28.8
[1], x1 = 0.75	–	–	–	–	32.3	31.3	30.1	29.3
[1], x1 = 0.8	–	–	–	–	32.9	31.9	30.6	29.8
[1], x1 = 0.85	–	–	–	–	33.6	32.5	31.2	30.4
[1], x1 = 0.9	–	–	–	–	34.3	33.2	31.9	31
[1], x1 = 0.95	–	–	–	–	35	33.9	32.6	31.8
[1], x1 = 1	–	–	–	–	35.7	34.6	33.3	32.5
[2], x1 = 0.05	1.38111	1.37682	1.37237	1.36815	–	–	–	–
[2], x1 = 0.1	1.39597	1.39165	1.38717	1.38279	–	–	–	–
[2], x1 = 0.15	1.40895	1.40452	1.39997	1.39551	–	–	–	–
[2], x1 = 0.2	1.42035	1.41593	1.41131	1.40679	–	–	–	–
[2], x1 = 0.25	1.43037	1.42598	1.42135	1.41678	–	–	–	–
[2], x1 = 0.3	1.43936	1.43498	1.43033	1.42576	–	–	–	–
[2], x1 = 0.35	1.44743	1.44303	1.4384	1.43378	–	–	–	–
[2], x1 = 0.4	1.45479	1.45038	1.44571	1.44105	–	–	–	–
[2], x1 = 0.45	1.46145	1.45702	1.45236	1.44765	–	–	–	–
[2], x1 = 0.5	1.4675	1.46309	1.45841	1.45369	–	–	–	–
[2], x1 = 0.55	1.47305	1.46865	1.46393	1.45918	–	–	–	–
[2], x1 = 0.6	1.47816	1.47372	1.46901	1.46424	–	–	–	–
[2], x1 = 0.65	1.48283	1.4784	1.47368	1.4689	–	–	–	–
[2], x1 = 0.7	1.48715	1.48273	1.47801	1.47321	–	–	–	–
[2], x1 = 0.75	1.49115	1.48675	1.48203	1.47724	–	–	–	–
[2], x1 = 0.8	1.49488	1.49047	1.48578	1.48098	–	–	–	–
[2], x1 = 0.85	1.4984	1.49401	1.48929	1.48449	–	–	–	–
[2], x1 = 0.9	1.5017	1.49731	1.49257	1.48776	–	–	–	–
[2], x1 = 0.95	1.50477	1.50037	1.49565	1.49086	–	–	–	–
[2], x1 = 1	1.5076	1.50328	1.49863	1.49391	–	–	–	–

CCCCCC(=O)OCC [ethyl hexanoate] + CCO
Conditions	refractive index, 288.15 K	refractive index, 298.15 K	refractive index, 308.15 K	refractive index, 318.15 K	surface tension liquid-gas, 288.15 K [mN/m]	surface tension liquid-gas, 298.15 K [mN/m]	surface tension liquid-gas, 308.15 K [mN/m]	surface tension liquid-gas, 318.15 K [mN/m]
[1], x1 = 0.05	–	–	–	–	23.4	22.7	21.8	20.9
[1], x1 = 0.1	–	–	–	–	23.8	23	22.1	21.2
[1], x1 = 0.15	–	–	–	–	24.1	23.2	22.4	21.5
[1], x1 = 0.2	–	–	–	–	24.3	23.5	22.6	21.7
[1], x1 = 0.25	–	–	–	–	24.5	23.7	22.8	21.9
[1], x1 = 0.3	–	–	–	–	24.7	23.9	23	22
[1], x1 = 0.35	–	–	–	–	24.9	24	23.1	22.2
[1], x1 = 0.4	–	–	–	–	25.1	24.2	23.3	22.3
[1], x1 = 0.45	–	–	–	–	25.2	24.3	23.4	22.5
[1], x1 = 0.5	–	–	–	–	25.4	24.4	23.5	22.6
[1], x1 = 0.55	–	–	–	–	25.5	24.5	23.6	22.7
[1], x1 = 0.6	–	–	–	–	25.6	24.6	23.7	22.8
[1], x1 = 0.65	–	–	–	–	25.7	24.7	23.8	22.9
[1], x1 = 0.7	–	–	–	–	25.8	24.9	23.9	23
[1], x1 = 0.75	–	–	–	–	25.9	25	24	23.1
[1], x1 = 0.8	–	–	–	–	26	25.1	24.1	23.2
[1], x1 = 0.85	–	–	–	–	26.1	25.1	24.2	23.3
[1], x1 = 0.9	–	–	–	–	26.2	25.2	24.3	23.4
[1], x1 = 0.95	–	–	–	–	26.3	25.3	24.4	23.5
[1], x1 = 1	–	–	–	–	26.4	25.4	24.5	23.6
[2], x1 = 0.05	1.36942	1.36535	1.36109	1.35703	–	–	–	–
[2], x1 = 0.1	1.37451	1.37034	1.36602	1.36185	–	–	–	–
[2], x1 = 0.15	1.37883	1.37461	1.37024	1.36601	–	–	–	–
[2], x1 = 0.2	1.38253	1.37826	1.37388	1.3696	–	–	–	–
[2], x1 = 0.25	1.38577	1.38146	1.37706	1.37274	–	–	–	–
[2], x1 = 0.3	1.38864	1.38429	1.37986	1.3755	–	–	–	–
[2], x1 = 0.35	1.39119	1.38681	1.38236	1.37795	–	–	–	–
[2], x1 = 0.4	1.39347	1.38907	1.3846	1.38016	–	–	–	–
[2], x1 = 0.45	1.39553	1.39111	1.38663	1.38216	–	–	–	–
[2], x1 = 0.5	1.3974	1.39296	1.38847	1.38398	–	–	–	–
[2], x1 = 0.55	1.3991	1.39465	1.39016	1.38564	–	–	–	–
[2], x1 = 0.6	1.40066	1.3962	1.3917	1.38716	–	–	–	–
[2], x1 = 0.65	1.4021	1.39763	1.39312	1.38857	–	–	–	–
[2], x1 = 0.7	1.40343	1.39895	1.39444	1.38988	–	–	–	–
[2], x1 = 0.75	1.40466	1.40019	1.39568	1.39111	–	–	–	–
[2], x1 = 0.8	1.40579	1.40133	1.39682	1.39225	–	–	–	–
[2], x1 = 0.85	1.40684	1.40238	1.39787	1.3933	–	–	–	–
[2], x1 = 0.9	1.4078	1.40334	1.39882	1.39426	–	–	–	–
[2], x1 = 0.95	1.40868	1.40422	1.39972	1.39515	–	–	–	–
[2], x1 = 1	1.4095	1.40504	1.40055	1.39597	–	–	–	–
